Experimental findings from patent EP2951180B1, “2,6,7,8 SUBSTITUTED PURINES AS HDM2 INHIBITORS” (Merck Sharp & Dohme Corp., priority 2013, dated 2014) are described below.

The target of experiment [1] is T1, HDM2 (Homo sapiens, UniProt Q00987).
T1 construct: Thioredoxin (N); made in house; host or cells: E. coli strain BL21(DE3)Rosetta
The experiment can be described thus: FRET assay (HDM2 inhibition; method not described in this part). It counts as binding.

Experiment [2] addresses T1, HDM2. The experiment can be described thus: HDM2 FRET assay (inhibition of binding of FITC labeled p53-pocket peptide to HDM2). The settings on record: read-out: FRET IC50. Put shortly:
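TR-FRET with 0.5 nM His-tagged recombinant HDM2, 3 nM FITC-labelled p53 peptide and 0.25 nM Tb-anti-His antibody in PBS, 0.01% BSA, 0.01% Tween-20, 0.1% DMSO. IC50 from em520/em495 ratio over 10-point dilutions, 4-parameter logistic fit.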

[3] abbreviates: 0.5 nM HDM2 (residues 17 to 125), 3nM peptide, two hour incubation at room temperature.

T1 sequence (Q00987 17-125): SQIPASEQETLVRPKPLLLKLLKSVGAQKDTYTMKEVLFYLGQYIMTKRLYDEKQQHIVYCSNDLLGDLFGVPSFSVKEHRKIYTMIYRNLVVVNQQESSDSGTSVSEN

As for `C[C@@H](Nc1nc(C(=O)O)nc2nc(-c3cc(Cc4ccccc4)ccn3)n(Cc3ccc(C(F)(F)F)cc3)c12)C1CCC1` [Example 1.9, (R)-8-(4-benzylpyridin-2-yl)-6-((1-cyclobutylethyl)amino)-7-(4-(trifluoromethyl)benzyl)-7H-purine-2-carboxylic acid], the concentration for half-maximal inhibition (IC50) – broadly, the concentration that gives 50% inhibition – against HDM2 [1] (Table 1) stood at 37.4 nM.

As to `C[C@@H](Nc1nc(C(=O)O)nc2nc(-c3cc(C4CCC4)ccn3)n(Cc3ccc(C(F)(F)F)cc3)c12)C1CCC1` [Example 1.54], at HDM2 [1] (Table 1), the IC50 was determined as 5.61 nM.

`COc1ccc(-c2nc3nc(C(=O)O)nc(N[C@H](C)C4CCC4)c3n2Cc2ccc(C(F)(F)F)cc2)nc1` [Example 1.20, 6-{[(1R)-1-cyclobutylethyl]amino}-8-(5-methoxypyridin-2-yl)-7-[4-(trifluoromethyl)benzyl]-7H-purine-2-carboxylic acid] displayed an IC50 against HDM2 [1] (Table 1) of 24.1 nM.

Consider `Cc1cccc(-c2nc3nc(C(=O)O)nc(N[C@H](C)C4CC4)c3n2C(C)c2ccc(Cl)cc2)c1` (stereo partly drawn) [Example 5.1, 7-(1-(4-chlorophenyl)ethyl)-6-(((R)-1-cyclopropylethyl)amino)-8-(3-methylphenyl)-7H-purine-2-carboxylic acid], for which, at HDM2 [1] (Table 5), the IC50 was 855 nM.

Regarding `Cc1ccc(N(C)C)cc1-c1nc2nc(C(=O)O)nc(N[C@H](C)C3CCC3)c2n1Cc1ccc(C(F)(F)F)cc1` [Example 1.39, 6-{[(1R)-1-cyclobutylethyl]amino}-8-[5-(dimethylamino)-2-methylphenyl]-7-[4-(trifluoromethyl)benzyl]-7H-purine-2-carboxylic acid], the IC50 at HDM2 [1] (Table 1) was determined as 58.5 nM.

For `Cc1cccc(-c2nc3nc(C(=O)O)nc(N[C@H](C)C4CCC4)c3n2Cc2ccc(C3CC3)cc2)c1` [Example 5.10, 6-{[(1R)-1-cyclobutylethyl]amino}-7-(4-cyclopropylbenzyl)-8-(3-methylphenyl)-7H-purine-2-carboxylic acid], the IC50 against HDM2 [1] (Table 5) was determined as 270 nM.

Take `CCc1ccc(OC)c(-c2nc3nc(C(=O)O)nc(N[C@H](C)C4CCC4)c3n2Cc2ccc(C(F)(F)F)cc2)c1` [Example 1.31, 6-{[(1R)-1-cyclobutylethyl]amino}-8-(5-ethyl-2-methoxyphenyl)-7-[4-(trifluoromethyl)benzyl]-7H-purine-2-carboxylic acid]: at HDM2 [1] (Table 1), the half-inhibitory concentration (IC50) stood at 18.7 nM.

On HDM2 [1] (Table 1), `COc1ccnc(-c2nc3nc(C(=O)O)nc(N[C@H](C)C4CCC4)c3n2Cc2ccc(C(F)(F)F)cc2)c1` [Example 1.67, 6-{[(1R)-1-cyclobutylethyl]amino}-8-(4-methoxypyridin-2-yl)-7-[4-(trifluoromethyl)benzyl]-7H-purine-2-carboxylic acid] came in with an IC50 of 14.2 nM.

Consider `COc1cc(-c2nc3nc(C(=O)O)nc(N[C@H](C)C4CCC4)c3n2Cc2ccc(C(F)(F)F)cc2)ccc1Cl` [Example 1.124, 8-(4-chloro-3-methoxyphenyl)-6-{[(1R)-1-cyclobutylethyl]amino}-7-[4-(trifluoromethyl)benzyl]-7H-purine-2-carboxylic acid], for which, at HDM2 [1] (Table 1), the midpoint of inhibition, the IC50, lay at 26.4 nM.

For the compound `Cc1cc(C2CC2)ccc1-c1nc2nc(C(=O)O)nc(N[C@H](C)C3CCC3)c2n1Cc1ccc(C(F)(F)F)cc1` [Example 2.2, (R)-6-((1-cyclobutylethyl)amino)-8-(4-cyclopropyl-2-methylphenyl)-7-(4-(trifluoromethyl)benzyl)-7H-purine-2-carboxylic acid], the IC50 against HDM2 [1] (Table 2) came out at 151 nM.

In turn, `Cc1c(C(C)C)ccnc1-c1nc2nc(C(=O)O)nc(N[C@H](C)C3CCC3)c2n1Cc1ccc(OC(F)(F)F)c(F)c1` [Example 1.91, 6-{[(1R)-1-cyclobutylethyl]amino}-7-[3-fluoro-4-(trifluoromethoxy)benzyl]-8-[3-methyl-4-(1-methylethyl)pyridin-2-yl]-7H-purine-2-carboxylic acid] displayed a half-maximal inhibitory concentration (IC50) against HDM2 [1] (Table 1) of 22.3 nM.

Compound `C[C@@H](Nc1nc(C(=O)O)nc2nc(-c3cc(C4CC4)ccn3)n(Cc3ccc(C(F)(F)F)c(F)c3)c12)C1CCC1` [Example 1.77, 6-{[(1R)-1-cyclobutylethyl]amino}-8-(4-cyclopropylpyridin-2-yl)-7-[3-fluoro-4-(trifluoromethyl)benzyl]-7H-purine-2-carboxylic acid] showed a concentration for half-maximal inhibition (IC50) on HDM2 [1] (Table 1) of 20 nM.

In the case of `Cc1cc(OC(F)(F)F)ccc1-c1nc2nc(C(=O)O)nc(N[C@H](C)C3CC3)c2n1Cc1ccc(C(F)(F)F)cc1` [Example 2.54, 6-{[(1R)-1-cyclopropylethyl]amino}-8-[2-methyl-4-(trifluoromethoxy)phenyl]-7-[4-(trifluoromethyl)benzyl]-7H-purine-2-carboxylic acid], on HDM2 [1] (Table 2), inhibition was half-maximal at 826 nM (IC50).

On HDM2 [1] (Table 2), `Cc1cccc(-c2nc3nc(C(=O)O)nc(N[C@H](C)C4CC4)c3n2Cc2ccc(Cl)cc2)c1` [Example 2.6, 7-(4-chlorobenzyl)-6-{[(1R)-1-cyclopropylethyl]amino}-8-(3-methylphenyl)-7H-purine-2-carboxylic acid] registered an IC50 of 209 nM.

With `Cc1ccc(OCCO)c(-c2nc3nc(C(=O)O)nc(N[C@H](C)C4CC4)c3n2Cc2ccc(Cl)cc2)c1` [Example 4.10, (R)-7-(4-chlorobenzyl)-6-((1-cyclopropylethyl)amino)-8-(2-(2-hydroxyethoxy)-5-methylphenyl)-7H-purine-2-carboxylic acid], the half-maximal inhibitory concentration (IC50) at HDM2 [1] (Table 4) amounted to 238 nM.

On to `Cc1cc(-c2nc3nc(C(=O)O)nc(N[C@H](C)C4CC4)c3n2Cc2ccc(C(F)(F)F)cc2)ccn1` [Example 1.118, 6-{[(1R)-1-cyclopropylethyl]amino} -8-(2-methylpyridin-4-yl)-7-[4-(trifluoromethyl)benzyl]-7H-purine-2-carboxylic acid], for which, on HDM2 [1] (Table 1), inhibition was half-maximal at 1370 nM (IC50).

`CCCc1ccnc(-c2nc3nc(C(=O)O)nc(N[C@H](C)C4CCC4)c3n2Cc2ccc(C(F)(F)F)c(F)c2)c1` [Example 1.80, 6-{[(1R)-1-cyclobutylethyl]amino}-7-[3-fluoro-4-(trifluoromethyl)benzyl]-8-(4-propylpyridin-2-yl)-7H-purine-2-carboxylic acid] showed a concentration for half-maximal inhibition (IC50) against HDM2 [1] (Table 1) of 7.45 nM.

In the case of `C[C@@H]1CN(C(=O)CO)CCN1c1nc2nc(-c3noc(=O)[nH]3)nc(N[C@H](C)C3CCC3)c2n1C[C@H]1CC[C@H](C)CC1` [Example 17.18, 3-(6-{[(1R)-1-cyclobutylethyl]amino}-8-[(2R)-4-(hydroxyacetyl)-2-methylpiperazin-1-yl]-7-[(trans-4-methylcyclohexyl)methyl]-7H-purin-2-yl)-1,2,4-oxadiazol-5(4H)-one], the IC50 on HDM2 [2] (Table 17.2) turned out to be 3.79 nM.

`Cc1nc(-c2cccc(-c3nc(-c4noc(=O)[nH]4)nc4nc(N5CCOC[C@H]5c5ccccc5)n(C[C@H]5CC[C@H](C)CC5)c34)c2)no1` [Example 16.112, 3-{7-[(trans-4-methylcyclohexyl)methyl]-6-[3-(5-methyl-1,2,4-oxadiazol-3-yl)phenyl]-8-[(3R)-3-phenylmorpholin-4-yl]-7H-purin-2-yl}-1,2,4-oxadiazol-5(4H)-one]: the IC50 at HDM2 [2] (setting [3]) turned out to be 18 nM.

With `C[C@@H](Nc1nc(C(=O)O)nc2nc(N3CCCCC3c3ccccc3)n(Cc3ccc(C(F)(F)F)cc3)c12)C1CCC1` (stereo partly drawn) [Example 9.44, 6-{[(1R)-1-cyclobutylethyl]amino}-8-(2-phenylpiperidin-1-yl)-7-[4-(trifluoromethyl)benzyl]-7H-purine-2-carboxylic acid], the half-maximal inhibitory concentration (IC50) at HDM2 [2] (Table 9) was 3.67 nM.

In the case of `CC(C)c1ccnc(-c2nc3nc(-c4noc(=O)[nH]4)nc(-c4cccc(Cl)c4)c3n2C[C@H]2CC[C@H](C)CC2)c1` [Example 16.16, 3-{6-(3-chlorophenyl)-7-[(trans-4-methylcyclohexyl)methyl]-8-[4-(1-methylethyl)pyridin-2-yl]-7H-purin-2-yl}-1,2,4-oxadiazol-5(4H)-one], the IC50 on HDM2 [2] (setting [3]) was determined as 11.4 nM.

Regarding `Cc1nc(C(C)(F)c2nc3nc(-c4noc(=O)[nH]4)nc(N[C@H](C)C4CCC4)c3n2C[C@H]2CC[C@H](C)CC2)c(C)s1` (single isomer, unassigned) [Example 22.75], the IC50 at HDM2 [2] (Table 22) stood at 5.48 nM.

Turning to `C[C@@H]1COCCN1c1nc2nc(-c3n[nH]c(=O)o3)nc(N[C@H](C)C3CCC3)c2n1C[C@H]1CC[C@H](C)CC1` [Example 11.97, 5-(6-{[(1R)-1-cyclobutylethyl]amino}-7-[(trans-4-methylcyclohexyl)methyl]-8-[(3R)-3-methylmorpholin-4-yl]-7H-purin-2-yl)-1,3,4-oxadiazol-2(3H)-one], at HDM2 [2] (Table 11), the half-inhibitory concentration (IC50) came out at 1.94 nM.

As for `CC1CCCN(c2nc3nc(C(=O)O)nc(N[C@H](C)C4CCC4)c3n2C[C@H]2CC[C@H](C)CC2)C1C` (stereo partly drawn) [Example 11.1, 6-(((R)-1-cyclobutylethyl)amino)-8-(2,3-dimethylpiperidin-1-yl)-7-((trans-4-methylcyclohexyl)methyl)-7H-purine-2-carboxylic acid], the 50% inhibitory concentration (IC50) at HDM2 [2] (Table 11) worked out at 4.55 nM.

For `CC(C)C1CCCN1c1nc2nc(-c3noc(=O)[nH]3)nc(N[C@H](C)C3CCC3)c2n1C[C@H]1CC[C@H](C)CC1` (stereo partly drawn) [Example 11.46, 3-(6-{[(1R)-1-cyclobutylethyl]amino}-7-[(trans-4-methylcyclohexyl)methyl]-8-[2-(1-methylethyl)pyrrolidin-1-yl]-7H-purin-2-yl)-1,2,4-oxadiazol-5(2H)-one], on HDM2 [2] (Table 11), the IC50 came out at 4.46 nM.

Take `CC[C@H]1CC[C@H](Cn2c(N3CCOC[C@H]3c3ccccc3)nc3nc(-c4noc(=O)[nH]4)nc(N[C@H](C)C4CCC4)c32)CC1` [Example 18.22, 3-(6-{[(1R)-1-cyclobutylethyl]amino}-7-[(trans-4-ethylcyclohexyl)methyl]-8-[(3R)-3-phenylmorpholin-4-yl]-7H-purin-2-yl)-1,2,4-oxadiazol-5(4H)-one]: on HDM2 [2] (Table 18), the IC50 was 3.86 nM.

In the case of `C[C@H]1CC[C@H](Cn2c(N3CCOC[C@H]3c3ccccc3)nc3nc(-c4noc(=O)[nH]4)nc(N4CC[C@@H]4C4CCC4)c32)CC1` [Example 11.9, 3-(6-((R)-2-Cyclobutylazetidin-1-yl)-7-((trans-4-methylcyclohexyl)methyl)-8-((R)-3-phenylmorpholino)-7H-purin-2-yl)-1,2,4-oxadiazol-5(4H)-one], the IC50 at HDM2 [2] (Table 11) was determined as 27.3 nM.
